The conditions of data set [1]: value from ref. 13; cited from earlier work.
The conditions of data set [2]: in DMF, known values; cited from earlier work.
For data set [3], the system named is Breast Cancer Cells (DC4 and DB-46). Briefly: Survival studies (Clonogenic Assay). Type of data set: cell-based. The following applies: 10 micromolar Pt agent, DC4 and DB-46 cells. The source says:
Plots are appended to this document that provide viable cells vs. concentration of Pt agent.

The nature of data set [4]: Cyclic voltammetry reduction potentials. Type of data set: physicochemical. The following applies: THF; for ΔEp: scan rate 10 V/sec, TBAPF6; for E1/2: vs. SCE, 10 μm Pt ultramicroelectrode.
From the text: THF was found suitable for this study as 1-3 have sufficient solubility and the electrochemical potential window (+1.2 V to −3 V vs. SCE) extends to the potential range of interest.
The nature of data set [5]: Fluorous partition coefficient, CF3C6F11/toluene, GLC method. Type of data set: physicochemical. The following applies: 1:1 v/v perfluoromethylcyclohexane and toluene. The source says: Fluorous partition coefficients (FPCs) were obtained for 1-4 for a 1:1 v/v biphasic mixture of “fluorous” solvent perfluoromethylcyclohexane, CF3C6F11 and toluene.

Like-named read-outs stand apart in the source and are kept apart here. Marks after values point to notes of the source that are not given here.

Turning to `FC(F)(F)C(F)(F)C(F)(F)C(F)(F)C(F)(F)C(F)(F)C(F)(F)C(F)(F)CCCCc1ccnc(-c2cc(CCCCC(F)(F)C(F)(F)C(F)(F)C(F)(F)C(F)(F)C(F)(F)C(F)(F)C(F)(F)F)ccn2)c1` [—(CH2)4Rf8, 4,4′-di-[(CH2)4(CF2)7CF3]-2,2′-bipyridine], in data set [1], the “FPC = Cbpy(CF3C6F11)/Cbpy(toluene)” value is listed as 0.67^c and the “fi = fluorophilicity = ln[FPC]” value was −0.40^c.

Take `c1ccc(-c2ccccn2)nc1` [—H, 2,2′-bipyridine]: in data set [2], the reduction potential was −2.60 V.

“[4,4′-Bis(4,4,4-trifluorobutyl)-2,2′-bipyridine]PtCl2 [Complex 1]”: the “colonies surviving / survival” value in data set [3] is recorded as “around 2%”.

In the case of `Cc1ccnc(-c2cc(C)ccn2)c1` [—CH3, 4,4′-dimethyl-2,2′-bipyridine], in data set [2], the reduction potential is −2.68 V. In data set [4], this compound yielded a ΔEp of 253 mV and an E1/2 of −2.493 V. In addition, the “FPC = Cbpy(CF3C6F11)/Cbpy(toluene)” value in data set [5] is “no compound in the CF3C6F11 layer”.

In the case of `FC(F)(F)C(F)(F)C(F)(F)C(F)(F)C(F)(F)C(F)(F)C(F)(F)C(F)(F)C(F)(F)C(F)(F)CCCc1ccnc(-c2cc(CCCC(F)(F)C(F)(F)C(F)(F)C(F)(F)C(F)(F)C(F)(F)C(F)(F)C(F)(F)C(F)(F)C(F)(F)F)ccn2)c1` [Ligand 4], in data set [5], the “FPC = Cbpy(CF3C6F11)/Cbpy(toluene)” value is 11 and the “fi = fluorophilicity = ln[FPC]” value was “+2.4”.

On to `CCCCCCCCCc1ccnc(-c2cc(CCCCCCCCC)ccn2)c1` [—(CH2)8CH3], for which, in data set [4], the ΔEp is listed as 299 mV and the E1/2 is recorded as −2.501 V. Also, the “FPC = Cbpy(CF3C6F11)/Cbpy(toluene)” value in data set [5] is recorded as “no compound in the CF3C6F11 layer”.
